From patent US9562084B2, “Peptides derived from NCAPG2 and their use” (NATIONAL CANCER CENTER, priority 2014, dated 2017)
Changes are numbered by the printed parent chain. Names may count otherwise. Values belong to the molecule of their own block, whether it stands above or below them. Where no end group is shown, it is not given here. [ ]: non-standard residue; d: D form. pT = C[C@@H](OP(=O)(O)O)[C@H](N)C(=O)O

Legend:
[1] = system: HuR-7 human hepatoma cell; assay: Cell survival and nucleus morphology of hepatoma cells treated with FITC-tagged NCAPG2 peptides (Opera Phenix); assay type: cell-based; conditions: HuR-7, FITC-tagged peptide
Excerpt: FIG. 12 illustrates NCAPG2 p The1010 (VLSpTL) and NCAPG2 The1010 (VLSTL) peptide decreased cell survival and induced mitotic defect in HuR-7 human hepatoma cell. Cell survival and nucleus morphology were detected from Opera Phenix system (PerkinElmer).

[2] = target: T1, human PLK1-PBD (371-594) (Homo sapiens, UniProt P53350); assay: Fluorescence polarisation binding assay for the PBD of PLK1; conditions: FITC-labelled peptide 10 nM, protein 0 to 4 μM
T1 construct: The human PLK1-PBD (371-594) was amplified by PCR; GST (N, cleaved yes); made in house; host or cells: E. coli Rosetta2(DE3)pLysS
Method: The human PLK1-PBD (371-594) was amplified by PCR and cloned into the pGEX6p-1 vector using the EcoRI and XhoI restriction enzyme sites. The protein was overexpressed in E. coli Rosetta2(DE3)pLysS cells (Novagen). The cells were grown at 37° C. in 3 L of Terrific Broth medium to an OD600 of 0.6, and recombinant protein expression was induced with 0.1 mM isopropyl β-D-thiogalactopyranoside (IPTG) at 20° C. The cells were further grown at 20° C. for 20 hr after IPTG induction. The purification methods were similar to methods that have been previously reported (Cheng, K. Y., et al. The crystal structure of the human polo-like kinase-1 polo box domain and its phospho-peptide complex. EMBO J 22, 5757-68 (2003)). Briefly, the cell pellet was resuspended in ice-cold HBS buffer (10 mM HEPES pH 7.5, 200 mM NaCl, 3.4 mM EDTA, 0.01% (v/v) 1-thioglycerol) and homogenized by sonication. After sonication, the cell debris was centrifuged and supernatant was applied to GST Sepharose resin (GE Healthcare). After extensive washing with HBS buffer, protein was eluted with HBS buffer supplemented with 20 mM reduced glutathione. PreScission protease (GE Healthcare) was added to eluted protein in order to remove the fused GST and the cleavage product was diluted and re-passed through GST Sepharose column. The flow through was collected and applied to Superdex 75 prep grade column (GE Healthcare) equilibrated with HBS buffer. The purified protein was concentrated to 6 mg/ml and used for fluorescence polarization binding assay or crystal screening.
For the fluorescence polarisation binding assay, FITC-labelled 1010pT (GVLSpTLI) or 1010T (GVLSTLI) (SEQ ID NO: 8) peptide was mixed with purified PBD and incubated in a buffer containing 10 mM HEPES (pH7.5), 50 mM NaCl, 1 mM EDTA, 1 mM DTT, and 0.0025% (v/v) Tween 20. The final protein concentrations ranged from 0 to 4 μM, and the final peptide concentration was 10 nM. Fluorescence polarisation was analysed 30 min after mixing the peptide and proteins in a 96-well plate using a VERSAmax microplate reader (Molecular Devices). Binding curves were fitted using GraphPad Prism software (GraphPad Software).
The human PLK1-PBD (371-594), PLK2-PBD (451-685) and PLK3-PBD (412-646) genes were cloned into pGEX6p-1 vector using EcoRI/XhoI restriction sites. […] The purified PLK-PBD proteins were concentrated and used for the fluorescence polarization binding assay.
For the fluorescence polarization binding assay, each fluorescein isothiocyanate (FITC)-labeled 1010pT (GVLSpTLI), 1010T (GVLSTLI), 1010E (GVLSELI), or 1010D (GVLSDLI) peptide was mixed with purified PLK1, PLK2 or PLK3 and incubated in a buffer containing 10 mM HEPES (pH 7.5), 50 mM NaCl, 1 mM EDTA, 1 mM DTT and 0.0025% (v/v) Tween 20. […]

[3] = target: T2, PLK1 (Homo sapiens, UniProt P53350); assay: Pull down assay / immunoprecipitation of Flag-tagged NCAPG2 mutants with GST-tagged PLK1; assay type: binding
T2 construct: expressed in transfected cells
Excerpt: The NCAPG2 expression vectors were constructed using pcDNA3.1, pCMV-3FLAG-1, and pLL3.7 vectors with KpnI/XhoI, EcoRV/XhoI, and SmaI/XhoI restriction enzyme sites, respectively. To produce siRNA-resistant NCAPG2 mutants (Lenti-NCAPG2^R), the mutants (forward primer: 5′ GAAGACTACCTGAAGCTTCACAGA GTGATT TATCAGCAAATTATCCAGACCTACCTG-3′ (SEQ ID NO: 3), reverse primer: 5′-CAGGTAGGTCTGGATAATTTGCTGATAAATCACTCTGTGAAGCTTCAGGTAGTCTTCTTC-3′ (SEQ ID NO: 4)) were generated using a QuikChange Site-Directed Mutagenesis Kit (Stratagene). […]
For the detection of proteins using the immunoblottings, subjects were protein complexes from immunoprecipitation or whole cell lysates harvested from indicated conditions. […] Protein concentration was determined using BCA™ protein assay kit (Pierce, Rockford, USA). […] Protein expressions detected chemiluminescent signals activated by SuperSignal West Pico Chemiluminescent Substrate (Pierce Rockford, Ill., USA) reacted with horse radish peroxidase tagged secondary antibodies (Jackson ImmunoResearch Laboratories, Inc., West Grove, USA).

T1 sequence (P53350 371-594): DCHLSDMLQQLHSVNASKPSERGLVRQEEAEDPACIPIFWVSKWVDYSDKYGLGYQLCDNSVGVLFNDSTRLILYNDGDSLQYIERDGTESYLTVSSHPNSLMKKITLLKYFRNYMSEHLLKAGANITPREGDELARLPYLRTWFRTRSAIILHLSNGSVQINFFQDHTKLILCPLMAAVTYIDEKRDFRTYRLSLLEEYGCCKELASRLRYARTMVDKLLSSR
T2 sequence (P53350 whole entry): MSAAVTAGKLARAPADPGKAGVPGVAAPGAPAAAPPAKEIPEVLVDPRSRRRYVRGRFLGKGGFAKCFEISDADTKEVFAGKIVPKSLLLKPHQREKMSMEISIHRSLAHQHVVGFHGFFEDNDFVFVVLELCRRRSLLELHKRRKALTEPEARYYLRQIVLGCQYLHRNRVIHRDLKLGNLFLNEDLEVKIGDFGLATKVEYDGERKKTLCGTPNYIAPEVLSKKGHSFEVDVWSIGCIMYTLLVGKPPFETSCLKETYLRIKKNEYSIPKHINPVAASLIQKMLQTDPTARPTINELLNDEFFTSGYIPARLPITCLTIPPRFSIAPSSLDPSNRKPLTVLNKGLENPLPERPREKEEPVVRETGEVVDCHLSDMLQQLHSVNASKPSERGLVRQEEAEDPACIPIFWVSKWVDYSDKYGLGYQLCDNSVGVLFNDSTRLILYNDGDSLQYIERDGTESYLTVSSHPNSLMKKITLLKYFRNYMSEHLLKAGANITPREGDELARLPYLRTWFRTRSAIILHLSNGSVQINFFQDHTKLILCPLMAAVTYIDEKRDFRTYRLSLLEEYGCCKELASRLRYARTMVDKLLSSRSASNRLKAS

Molecule: VLSpTL (VLS[pT]L; listed as Homo sapiens) [NG2 p The1010, phosphorylated 5-mer NCAPG2 peptide comprising residue 1010]
- effect on mitosis [1]: induced abnormal mitosis
- survival rate of human liver cancer cell [1]: lowered survival rate

Molecule: VLSTL (listed as Homo sapiens) [NG2 The1010]
- effect on mitosis [1]: induced abnormal mitosis
- survival rate of human liver cancer cell [1]: lowered survival rate

B2: T805A: NCAPG2 mutant which substituted threonine with alanine at the residue number 805 of SEQ ID NO: 7 (protein, listed as Homo sapiens)
chain: MEKRETFVQAVSKELVGEFLQFVQLDKEASDPFSLNELLDELSRKQKEELWQRLKNLLTDVLLESPVDGWQVVEAQGEDNMETEHGSKMRKSIEIIYAITSVILASVSVINESENYEALLECVIILNGILYALPESERKLQSSIQDLCVTWWEKGLPAKEDTGKTAFVMLLRRSLETKTGADVCRLWRIHQALYCFDYDLEESGEIKDMLLECFININYIKKEEGRRFLSCLFNWNINFIKMIHGTIKNQLQGLQKSLMVYIAEIYFRAWKKASGKILEAIENDCIQDFMFHGIHLPRRSPVHSKVREVLSYFHHQKKVRQGVEEMLYRLYKPILWRGLKARNSEVRSNAALLFVEAFPIRDPNLHAIEMDSEIQKQFEELYSLLEDPYPMVRSTGILGVCKITSKYWEMMPPTILIDLLKKVTGELAFDTSSADVRCSVFKCLPMILDNKLSHPLLEQLLPALRYSLHDNSEKVRVAFVDMLLKIKAVRAAKFWKICPMEHILVRLETDSRPVSRRLVSLIFNSFLPVNQPEEVWCERCVTLVQMNHAAARRFYQYAHEHTACTNIAKLIHVIRHCLNACIQRAVREPPEDEEEEDGREKENVTVLDKTLSVNDVACMAGLLEIIVILWKSIDRSMENNKEAKLYTINKFASVLPEYLKVFKDDRCKIPLFMLMSFMPASAVPPFSCGVISTLRSREEGAVDKSYCTLLDCLCSWGQVGHILELVDNWLPTEHAQAKSNTASKGRVQIHDTRPVKPELALVYIEYLLTHPKNRECLLSAPRKKLNHLLKALETSKADLESLLQAPGGKPRGFSEAAAPRAFGLHCRLSIHLQHKFCSEGKVYLSMLEDTGFWLESKILSFIQDQEEDYLKLHRVIYQQIIQTYLTVCKDVVMVGLGDHQFQMQLLQRSLGIMQTVKGFFYVSLLLDILKEITGSSLIQKTDSDEEVAMLLDTVQKVFQKMLECIARSFRKQPEEGLRLLYSVQRPLHEFITAVQSRHTDTPVHRGVLSTLIAGPVVEISHQLRKVSDVEELTPPEHLSDLPPFSRCLIGIIIKSSNVVRSFLDELKACVASNDIEGIVCLTAAVHIILVINAGKHKSSKVREVAATVHRKLKTFMEITLEEDSIERFLYESSSRTLGELLNS
- binding of NCAPG2 mutant to PLK1 [3]: inhibited

Further lines, results first:

- binding to PLK1-PBD (in words) [2]: did not bind
Molecule: GVLSDLI [1010D, 7-mer peptide with aspartate as phosphor-Thr mimetic]

- binding to PLK1-PBD (in words) [2]: did not bind
Molecule: GVLSELI [1010E, 7-mer peptide with glutamate as phosphor-Thr mimetic]

- binding of NCAPG2 mutant to PLK1 [3]: inhibited
B1: T1010A: NCAPG2 mutant which substituted threonine with alanine at the residue number 1010 of SEQ ID NO: 7 (protein, listed as Homo sapiens)
chain: B2 chain with A805T, T1010A
